Results: patent US10131652B2, “Pyrimidinyloxy benzene derivatives as herbicides” (E. I. DU PONT DE NEMOURS AND COMPANY, priority 2014, dated 2018)
Like-named read-outs stand apart in the source and are kept apart here.

What was measured:
Assay in all cases: Test E pre-/postemergence plant response
Format in all cases: in vivo
[1] = system: spring wheat (Triticum aestivum); conditions: post-emergence, Postemergence, scale 0 to 100, read-out: Plant response rating, Wheat, Spring
How it was run: (§1)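 Pre-emergence: seeds sown in silt loam soil and sprayed with test chemicals in a non-phytotoxic solvent/surfactant mix. Post-emergence: plants at 2–18 cm (1- to 4-leaf stage) in peat/vermiculite medium treated with the same formulation. Visual rating versus controls after 7–21 days, 0 (no effect) to 100 (complete control).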

[2] = system: chamomile (scentless chamomile, Matricaria inodora); conditions: Tripleurospermum inodorum, scale 0 to 100, read-out: Plant response rating, Chamomile; for pest or weed control at 16 g/ha: 16 g ai/ha; for pest or weed control at 31 g/ha: 31 g ai/ha; for pest or weed control at 62 g/ha: 62 g ai/ha; for pest or weed control at 125 g/ha: 125 g ai/ha
How it was run: as §1

[3] = system: field poppy (Papaver rhoeas); conditions: scale 0 to 100, read-out: Plant response rating, Field Poppy; for pest or weed control at 16 g/ha: 16 g ai/ha; for pest or weed control at 31 g/ha: 31 g ai/ha; for pest or weed control at 62 g/ha: 62 g ai/ha; for pest or weed control at 125 g/ha: 125 g ai/ha
How it was run: as §1

[4] = system: bluegrass (annual bluegrass, Poa annua); conditions: scale 0 to 100, read-out: Plant response rating, Bluegrass; for pest or weed control at 16 g/ha: 16 g ai/ha; for pest or weed control at 31 g/ha: 31 g ai/ha; for pest or weed control at 62 g/ha: 62 g ai/ha; for pest or weed control at 125 g/ha: 125 g ai/ha
How it was run: as §1

[5] = system: green foxtail (Setaria viridis); conditions: scale 0 to 100, read-out: Plant response rating, Foxtail, Green; for pest or weed control at 16 g/ha: 16 g ai/ha; for pest or weed control at 31 g/ha: 31 g ai/ha; for pest or weed control at 62 g/ha: 62 g ai/ha; for pest or weed control at 125 g/ha: 125 g ai/ha
How it was run: as §1

kochia (Kochia scoparia) = conditions: Bassia scoparia, scale 0 to 100, read-out: Plant response rating, Kochia; for pest or weed control at 16 g/ha: 16 g ai/ha; for pest or weed control at 31 g/ha: 31 g ai/ha; for pest or weed control at 62 g/ha: 62 g ai/ha; for pest or weed control at 125 g/ha: 125 g ai/ha
How it was run: as §1

[6] = system: speedwell (bird's-eye speedwell, Veronica persica); conditions: scale 0 to 100, read-out: Plant response rating, Speedwell; for pest or weed control at 16 g/ha: 16 g ai/ha; for pest or weed control at 62 g/ha: 62 g ai/ha; for pest or weed control at 125 g/ha: 125 g ai/ha
How it was run: as §1

[7] = system: oilseed rape (Brassica napus); conditions: scale 0 to 100, read-out: Plant response rating, Oilseed Rape; for plant injury at 16 g/ha: 16 g ai/ha; for plant injury at 31 g/ha: 31 g ai/ha; for plant injury at 62 g/ha: 62 g ai/ha; for plant injury at 125 g/ha: 125 g ai/ha
How it was run: as §1

[8] = system: winter wheat (Triticum aestivum); conditions: post-emergence, Postemergence, scale 0 to 100, read-out: Plant response rating, Wheat, Winter
How it was run: as §1

[9] = system: downy bromegrass (Bromus tectorum); conditions: scale 0 to 100, read-out: Plant response rating, Bromegrass, Downy; for pest or weed control at 16 g/ha: 16 g ai/ha; for pest or weed control at 31 g/ha: 31 g ai/ha; for pest or weed control at 62 g/ha: 62 g ai/ha; for pest or weed control at 125 g/ha: 125 g ai/ha
How it was run: as §1

[10] = system: wild mustard (Sinapis arvensis); conditions: Brassica, scale 0 to 100, read-out: Plant response rating, Mustard, Wild; for pest or weed control at 16 g/ha: 16 g ai/ha; for pest or weed control at 31 g/ha: 31 g ai/ha; for pest or weed control at 62 g/ha: 62 g ai/ha; for pest or weed control at 125 g/ha: 125 g ai/ha
How it was run: as §1

FC(F)c1cc(-c2ccccc2Oc2ncc(Cl)cn2)no1 [Compound 35, 5-chloro-2-[2-[5-(difluoromethyl)-3-isoxazolyl]phenoxy]pyrimidine]
plant injury at 16 g/ha ([1]; 16 g ai/ha): 0%
plant injury at 31 g/ha ([1]; 31 g ai/ha): 10%
plant injury at 62 g/ha ([1]; 62 g ai/ha): 25%
plant injury at 125 g/ha ([1]; 125 g ai/ha): 40%
pest or weed control at 16 g/ha ([2]; post-emergence, Postemergence): 5%
pest or weed control at 31 g/ha ([2]; post-emergence, Postemergence): 5%
pest or weed control at 62 g/ha ([2]; post-emergence, Postemergence): 5%
pest or weed control at 125 g/ha ([2]; post-emergence, Postemergence): 10%
pest or weed control at 16 g/ha ([2]; pre-emergence, Preemergence): 5%
pest or weed control at 31 g/ha ([2]; pre-emergence, Preemergence): 10%
pest or weed control at 62 g/ha ([2]; pre-emergence, Preemergence): 70%
pest or weed control at 125 g/ha ([2]; pre-emergence, Preemergence): 70%
pest or weed control at 16 g/ha ([3]; post-emergence, Postemergence): 70%
pest or weed control at 31 g/ha ([3]; post-emergence, Postemergence): 75%
pest or weed control at 62 g/ha ([3]; post-emergence, Postemergence): 80%
pest or weed control at 125 g/ha ([3]; post-emergence, Postemergence): 100%
pest or weed control at 16 g/ha ([3]; pre-emergence, Preemergence): 75%
pest or weed control at 31 g/ha ([3]; pre-emergence, Preemergence): 80%
pest or weed control at 62 g/ha ([3]; pre-emergence, Preemergence): 90%
pest or weed control at 125 g/ha ([3]; pre-emergence, Preemergence): 90%
pest or weed control at 16 g/ha ([4]; post-emergence, Postemergence): 15%
pest or weed control at 31 g/ha ([4]; post-emergence, Postemergence): 20%
pest or weed control at 62 g/ha ([4]; post-emergence, Postemergence): 40%
pest or weed control at 125 g/ha ([4]; post-emergence, Postemergence): 60%
pest or weed control at 16 g/ha ([4]; pre-emergence, Preemergence): 0%
pest or weed control at 31 g/ha ([4]; pre-emergence, Preemergence): 35%
pest or weed control at 62 g/ha ([4]; pre-emergence, Preemergence): 35%
pest or weed control at 125 g/ha ([4]; pre-emergence, Preemergence): 70%
pest or weed control at 16 g/ha ([5]; post-emergence, Postemergence): 20%
pest or weed control at 31 g/ha ([5]; post-emergence, Postemergence): 35%
pest or weed control at 62 g/ha ([5]; post-emergence, Postemergence): 55%
pest or weed control at 125 g/ha ([5]; post-emergence, Postemergence): 55%
pest or weed control at 16 g/ha ([5]; pre-emergence, Preemergence): 5%
pest or weed control at 31 g/ha ([5]; pre-emergence, Preemergence): 90%
pest or weed control at 62 g/ha ([5]; pre-emergence, Preemergence): 90%
pest or weed control at 125 g/ha ([5]; pre-emergence, Preemergence): 100%
pest or weed control at 16 g/ha (kochia (Kochia scoparia); post-emergence, Postemergence): 75%
pest or weed control at 31 g/ha (kochia (Kochia scoparia); post-emergence, Postemergence): 75%
pest or weed control at 62 g/ha (kochia (Kochia scoparia); post-emergence, Postemergence): 80%
pest or weed control at 125 g/ha (kochia (Kochia scoparia); post-emergence, Postemergence): 90%
pest or weed control at 16 g/ha (kochia (Kochia scoparia); pre-emergence, Preemergence): 25%
pest or weed control at 31 g/ha (kochia (Kochia scoparia); pre-emergence, Preemergence): 65%
pest or weed control at 62 g/ha (kochia (Kochia scoparia); pre-emergence, Preemergence): 100%
pest or weed control at 125 g/ha (kochia (Kochia scoparia); pre-emergence, Preemergence): 100%
pest or weed control at 16 g/ha ([6]; post-emergence, Postemergence): 75%
pest or weed control at 31 g/ha ([6]; post-emergence, 31 g ai/ha, Postemergence): 100%
pest or weed control at 62 g/ha ([6]; post-emergence, Postemergence): 100%
pest or weed control at 125 g/ha ([6]; post-emergence, Postemergence): 100%
pest or weed control at 16 g/ha ([6]; pre-emergence, Preemergence): 100%
pest or weed control at 62 g/ha ([6]; pre-emergence, Preemergence): 100%
pest or weed control at 125 g/ha ([6]; pre-emergence, Preemergence): 100%
plant injury at 16 g/ha ([7]; post-emergence, Postemergence): 70%
plant injury at 31 g/ha ([7]; post-emergence, Postemergence): 80%
plant injury at 62 g/ha ([7]; post-emergence, Postemergence): 95%
plant injury at 125 g/ha ([7]; post-emergence, Postemergence): 100%
plant injury at 16 g/ha ([7]; pre-emergence, Preemergence): 60%
plant injury at 31 g/ha ([7]; pre-emergence, Preemergence): 95%
plant injury at 62 g/ha ([7]; pre-emergence, Preemergence): 100%
plant injury at 125 g/ha ([7]; pre-emergence, Preemergence): 100%
plant injury at 16 g/ha ([8]; 16 g ai/ha): 5%
plant injury at 31 g/ha ([8]; 31 g ai/ha): 15%
plant injury at 62 g/ha ([8]; 62 g ai/ha): 25%
plant injury at 125 g/ha ([8]; 125 g ai/ha): 40%
pest or weed control at 16 g/ha ([9]; post-emergence, Postemergence): 5%
pest or weed control at 31 g/ha ([9]; post-emergence, Postemergence): 5%
pest or weed control at 62 g/ha ([9]; post-emergence, Postemergence): 15%
pest or weed control at 125 g/ha ([9]; post-emergence, Postemergence): 30%
pest or weed control at 16 g/ha ([9]; pre-emergence, Preemergence): 0%
pest or weed control at 31 g/ha ([9]; pre-emergence, Preemergence): 35%
pest or weed control at 62 g/ha ([9]; pre-emergence, Preemergence): 35%
pest or weed control at 125 g/ha ([9]; pre-emergence, Preemergence): 25%
pest or weed control at 16 g/ha ([10]; post-emergence, Postemergence): 90%
pest or weed control at 31 g/ha ([10]; post-emergence, Postemergence): 85%
pest or weed control at 62 g/ha ([10]; post-emergence, Postemergence): 85%
pest or weed control at 125 g/ha ([10]; post-emergence, Postemergence): 100%
pest or weed control at 16 g/ha ([10]; pre-emergence, Preemergence): 20%
pest or weed control at 31 g/ha ([10]; pre-emergence, Preemergence): 60%
pest or weed control at 62 g/ha ([10]; pre-emergence, Preemergence): 95%
pest or weed control at 125 g/ha ([10]; pre-emergence, Preemergence): 95%
